Structures can show the parent of a compound that is named as a salt. Where two headings read alike, the source gives them in different places.
Experiments:
livers = assay: denitration rate relative to isosorbide-5-mononitrate (Vrel): NO2 freed in perfusate of re-perfused rat livers; conditions: rat liver perfusion 4 min, 5×10^-5 M/l, NO2 determined in the perfusate; high values = fast denitration
[1] = tested on: increase of the frequency through isoprenaline; assay: β-blocking effectiveness: inhibition of isoprenaline-induced increase of the frequency in rabbits; type: in vivo, rabbit; conditions: Oryctolagus cuniculus, iv, read-out: ID 50 fcor (dose which causes an inhibition of 50% of the increase of the frequency through isoprenaline)
[2] = rabbits, i.v., isoprenaline 1 mcg/kg i.v.

Cc1ccccc1C=C1C(=O)Nc2cccc(OCC(O)CNC(C)CCO[N+](=O)[O-])c21 (centres unmarked) [BV 6, 4-[2-hydroxy-3-(1-methyl-3-nitratopropylamino)-propoxy]-3-(2-methylbenzylidene)-indolinon fumarate]
Vrel (denitration rate in relation to isosorbide-5-mononitrate) (livers): 0.74
ED50 [1, 2]: > 4 mg/kg

CC(CCO[N+](=O)[O-])NCC(O)COc1cccc2c1C(=Cc1ccc(C#N)cc1)C(=O)N2 (centres unmarked) [4 (j), 4-[2-hydroxy-3-(1-methyl-3-nitratopropylamino)-propoxy]-3-(4-cyanobenzylidene)-indolinone hemifumarate]
Vrel (denitration rate in relation to isosorbide-5-mononitrate) (livers): 0.49

CC(CCO[N+](=O)[O-])NCC(O)COc1cccc2c1C(=Cc1ccn[nH]1)C(=O)N2 (centres unmarked) [Example 2, 4-[2-Hydroxy-3-(1-methyl-3-nitratopropylamino)-propoxy]-3-(pyrazol-5-yl)-methyleneindolinone benzoate]
Vrel (denitration rate in relation to isosorbide-5-mononitrate) (livers): 1.12
ED50 [1, 2]: 0.011 mg/kg

CC(CCO[N+](=O)[O-])NCC(O)COc1cccc2c1C(=Cc1cccs1)C(=O)N2 (centres unmarked) [4 (b), 4-[2-hydroxy-3-(1-methyl-3-nitratopropylamino)-propoxy]-3-(thiophen-2-yl)-methylene-indolinone fumarate]
Vrel (denitration rate in relation to isosorbide-5-mononitrate) (livers): 0.54
ED50 [1, 2]: 0.0276 mg/kg

CC(CCO[N+](=O)[O-])NCC(O)COc1cccc2c1C(=Cc1cccc(Cl)c1)C(=O)N2 (centres unmarked) [BV 4, 4-[2-hydroxy-3-(1-methyl-3-nitratopropylamino)-propoxy]-3-(3-chlorobenzylidene)-indolinone fumarate]
Vrel (denitration rate in relation to isosorbide-5-mononitrate) (livers): 1.22
ED50 [1, 2]: 1.09 mg/kg

CC(C)(CNCC(O)COc1cccc2c1CC(=O)N2)CO[N+](=O)[O-] (centres unmarked) [BV 40, 4-[2-hydroxy-3-(2,2-dimethyl-3-nitratopropylamino)-propoxy]-indolinone hemifumarate]
Vrel (denitration rate in relation to isosorbide-5-mononitrate) (livers): 3.51
ED50 [1, 2]: 0.69 mg/kg

CC(CCO[N+](=O)[O-])NCC(O)COc1cccc2c1C(=Cc1ccccn1)C(=O)N2 (centres unmarked) [2 (b), 4-[2-hydroxy-3-(1-methyl-3-nitratopropylamino)-propoxy]-3-(pyridin-2-yl)-methylene-indolinone fumarate]
Vrel (denitration rate in relation to isosorbide-5-mononitrate) (livers): 0.86
ED50 [1, 2]: 0.172 mg/kg

CC(CCO[N+](=O)[O-])NCC(O)COc1cccc2c1C(=Cc1ccco1)C(=O)N2 (centres unmarked) [4 (a), 4-[2-hydroxy-3-(1-methyl-3-nitratopropylamino)-propoxy]-3-(furan-2-yl)-methylene-indolinone fumarate]
Vrel (denitration rate in relation to isosorbide-5-mononitrate) (livers): 0.65
ED50 [1, 2]: 0.0096 mg/kg

COc1cccc(C=C2C(=O)Nc3cccc(OCC(O)CNC(C)CCO[N+](=O)[O-])c32)c1 (centres unmarked) [BV 9, 4-[2-hydroxy-3-(1-methyl-3-nitratopropylamino)-propoxy]-3-(3-methoxybenzylidene)-indolinone acetate]
Vrel (denitration rate in relation to isosorbide-5-mononitrate) (livers): 0.60
ED50 [1, 2]: 0.765 mg/kg

CC(CCO[N+](=O)[O-])NCC(O)COc1ccc2c(c1)C(C(C)c1ccccc1)C(=O)N2 (stereo not drawn) [1 (g), 5-[2-hydroxy-3-(1-methyl-3-nitratopropylamino)-propoxy]-3-(α-methylbenzyl)-indolinone hemifumarate]
Vrel (denitration rate in relation to isosorbide-5-mononitrate) (livers): 0.70
ED50 [1, 2]: 5.31 mg/kg

CC(CCO[N+](=O)[O-])NCC(O)COc1ccc2c(c1)C(C(C)C)C(=O)N2 (centres unmarked) [1 (f), 5-[2-hydroxy-3-(1-methyl-3-nitratopropylamino)-propoxy]-3-isopropylindolinone]
Vrel (denitration rate in relation to isosorbide-5-mononitrate) (livers): 3.01

CC(CCO[N+](=O)[O-])NCC(O)COc1cccc2c1C(=Cc1ccc[nH]1)C(=O)N2 (centres unmarked) [2 (a), 4-[2-hydroxy-3-(1-methyl-3-nitratopropylamino)-propoxy]-3-(pyrrol-2-yl)-methylene-indolinone hemifumarate]
Vrel (denitration rate in relation to isosorbide-5-mononitrate) (livers): 2.40

CC(=C1C(=O)Nc2ccc(OCC(O)CNC(C)CCO[N+](=O)[O-])cc21)c1ccccc1 (stereo not drawn) [1 (i), 5-[2-hydroxy-3-(1-methyl-3-nitratopropylamino)-propoxy]-3-(α-methylbenzylidene)-indolinone hemifumarate]
Vrel (denitration rate in relation to isosorbide-5-mononitrate) (livers): 0.81
ED50 [1, 2]: 3.36 mg/kg

O=[N+]([O-])O[C@@H]1CO[C@H]2[C@@H]1OC[C@@H]2O [Isosorbide-5-mononitrate, isosorbide-5-mononitrate, reference compound]
Vrel (denitration rate in relation to isosorbide-5-mononitrate) (livers): 0.86

CC(C)(CCO[N+](=O)[O-])NCC(O)COc1cccc2c1C(=Cc1ccn[nH]1)C(=O)N2 (centres unmarked) [4 (g), 4-[2-hydroxy-3-(1,1-dimethyl-3-nitratopropylamino)-propoxy]-3-(pyrazol-5-yl)-methylene-indolinone hemifumarate]
Vrel (denitration rate in relation to isosorbide-5-mononitrate) (livers): 1.59
ED50 [1, 2]: 0.013 mg/kg

CC(CCO[N+](=O)[O-])NCC(O)COc1cccc2c1NC(=O)C2 (centres unmarked) [1 (e), 7-[2-hydroxy-3-(1-methyl-3-nitratopropylamino)-propoxy]-indolinone fumarate]
Vrel (denitration rate in relation to isosorbide-5-mononitrate) (livers): 1.79

CC(CC(C)O[N+](=O)[O-])NCC(O)COc1cccc2c1C(=Cc1ccn[nH]1)C(=O)N2 (centres unmarked) [4 (h), 4-[2-hydroxy-3-(1,3-dimethyl-3-nitratopropylamino)-propoxy]-3-pyrazol-5-yl)-methylene-indolinone fumarate]
Vrel (denitration rate in relation to isosorbide-5-mononitrate) (livers): 1.39
ED50 [1, 2]: 0.039 mg/kg

Cc1cc(C=C2C(=O)Nc3cccc(OCC(O)CNC(C)CCO[N+](=O)[O-])c32)[nH]n1 (centres unmarked) [BV 43, 4-[2-hydroxy-3-(1-methyl-3-nitratopropylamino)-propoxy]-3-(3-methylpyrazol-5-yl)-methyleneindolinone]
Vrel (denitration rate in relation to isosorbide-5-mononitrate) (livers): 0.83
ED50 [1, 2]: 0.0096 mg/kg

CC(CCO[N+](=O)[O-])NCC(O)COc1cccc2c1CC(=O)N2 (centres unmarked) [Example 1, 4-[2-hydroxy-3-(1-methyl-3-nitratopropylamino)-propoxy]-indolinone benzoate]
Vrel (denitration rate in relation to isosorbide-5-mononitrate) (livers): 1.60
ED50 [1, 2]: 0.0066 mg/kg

CC(C)NCC(O)COc1cccc2[nH]ccc12 (centres unmarked) [Pindolol, reference compound]
ED50 [1, 2]: 0.104 mg/kg

CC(CCO[N+](=O)[O-])NCC(O)COc1cccc2c1C(=Cc1ccc([N+](=O)[O-])cc1)C(=O)N2 (centres unmarked) [BV 20, 4-[2-hydroxy-3-(1-methyl-3-nitratopropylamino)-propoxy]-3-(4-nitrobenzylidene)-indolinone]
Vrel (denitration rate in relation to isosorbide-5-mononitrate) (livers): 0.71
ED50 [1]: 0.113 mg/kg

CC(CCO[N+](=O)[O-])NCC(O)COc1cccc2c1C(=Cc1ccccc1)C(=O)N2 (centres unmarked) [2 (c), 4-[2-hydroxy-3-(1-methyl-3-nitratopropylamino)-propoxy]-3-benzylideneindolinone fumarate]
Vrel (denitration rate in relation to isosorbide-5-mononitrate) (livers): 0.59
ED50 [1, 2]: 1.97 mg/kg

CC(CCO[N+](=O)[O-])NCC(O)COc1ccc2c(c1)NC(=O)C2 (centres unmarked) [1 (d), 6-[2-hydroxy-3-(1-methyl-3-nitratopropylamino)-propoxy]-indolinone fumarate]
Vrel (denitration rate in relation to isosorbide-5-mononitrate) (livers): 1.81

CC(=O)O.CC(CCO[N+](=O)[O-])NCC(O)COc1cccc2c1C(=Cc1cc(=O)[nH]c(=O)[nH]1)C(=O)N2 (centres unmarked) [4 (f), 4-[2-hydroxy-3-(1-methyl-3-nitratopropylamino)-propoxy]-3-(uracil-4-yl)-methylene-indolinone acetate]
Vrel (denitration rate in relation to isosorbide-5-mononitrate) (livers): 1.80

Cc1cc(C=C2C(=O)Nc3cccc(OCC(O)CNCC(C)(C)CO[N+](=O)[O-])c32)[nH]n1 (centres unmarked) [4 (k), 4-[2-hydroxy-3-(2,2-dimethyl-3-nitratopropylamino)-propoxy]-3-(3-methylpyrazol-5-yl)-methyleneindolinone]
Vrel (denitration rate in relation to isosorbide-5-mononitrate) (livers): 1.88

CC(CC(C)O[N+](=O)[O-])NCC(O)COc1cccc2c1CC(=O)N2 (centres unmarked) [1 (b), 4-[2-hydroxy-3-(1,3-dimethyl-3-nitratopropylamino)-propoxy]-indolinone fumarate]
Vrel (denitration rate in relation to isosorbide-5-mononitrate) (livers): 2.02
ED50 [1, 2]: 0.0038 mg/kg

CC(CCO[N+](=O)[O-])NCC(O)COc1cccc2c1C(=Cc1nc[nH]n1)C(=O)N2 (centres unmarked) [4 (d), 4-[2-hydroxy-3-(1-methyl-3-nitratopropylamino)-propoxy]-3-(1,2,4-triazol-3-yl)-methyleneindolinone fumarate]
Vrel (denitration rate in relation to isosorbide-5-mononitrate) (livers): 1.00
ED50 [1, 2]: 0.0096 mg/kg

CC(CCO[N+](=O)[O-])NCC(O)COc1ccc2c(c1)CC(=O)N2 (centres unmarked) [1 (c), 5-[2-hydroxy-3-(1-methyl-3-nitratopropylamino)-propoxy]-indolinone fumarate]
Vrel (denitration rate in relation to isosorbide-5-mononitrate) (livers): 1.77
ED50 [1, 2]: 5.08 mg/kg

CC(CCO[N+](=O)[O-])NCC(O)COc1cccc2c1C(C)(C)C(=O)N2 (centres unmarked) [BV 2, 4-[2-hydroxy-3-(1-methyl-3-nitratopropylamino)-propoxy]-3,3-dimethylindolinone fumarate]
Vrel (denitration rate in relation to isosorbide-5-mononitrate) (livers): 2.99

CC(C)(CCO[N+](=O)[O-])NCC(O)COc1cccc2c1CC(=O)N2 (centres unmarked) [1 (a), 4-[2-hydroxy-3-(1,1-dimethyl-3-nitratopropylamino)-propoxy]-indolinone hemifumarate]
Vrel (denitration rate in relation to isosorbide-5-mononitrate) (livers): 1.23
ED50 [1, 2]: 0.015 mg/kg

— US4826847A, “Beta-blocking oxindole derivatives” (Boehringer Mannheim GmbH, priority 1984, dated 1989)
